Assay results as given in patent US20230271993A1, “3-DEOXY-2-KETOALDONIC ACID NITROGEN-CONTAINING DERIVATIVE, PREPARATION METHOD THEREOF, AND USE THEREOF” (SICHUAN UNIVERSITY, priority 2020, published 2023).
Like-named read-outs stand apart in the source and are kept apart here.

How the values were obtained:
[1] = system: Zika virus-infected BHK cells; assay: Anti-Zika (ZIKV) virus activity test, CellTiter-Glo cell viability; type: cell-based, Zika virus SZ-SMGC-01 strain; conditions: 100 TCID50 virus per well, 9 days at 37° C.
Protocol: (1) Anti-Zika (ZIKV) Virus Activity Test
Test object: Zika virus-infected BHK cells
Testing Method: • (1) BBHK cells (preserved by the Academy of Military Medical Sciences) were inoculated into a 96-well plate at a concentration of 5×10^3 cells/well, and the cell culture medium was DMEM medium (purchased from Gibco Company, Cat. No. 11995065) containing 10% FBS (purchased from Gibco, Cat. No. 16000044), the plate was placed in a CO2 incubator, and incubated at 37° C. for 24 hours. • (2) The original medium in the 96-well plate was discarded, 100 μL of DMEM medium (purchased from Gibco, Cat. No. 11995065) containing 2% FBS (purchased from Gibco, Cat. No. 16000044) was taken and added into the cells. Then, the stock solution of the compound to be tested was serially diluted with the above-mentioned DMEM medium to 800 μM, 266.67 μM, 88.89 μM, 29.63 μM, 9.88 μM, 3.29 μM, 1.10 μM, 0.37 μM, and 50 μL was added to the cell culture plate. The stock solution of positive compound NITD008 (purchased from MCE Company, Cat. No. HY-12957) was serially diluted with the above DMEM medium to 80 μM, 26.67 μM, 8.89 μM, 2.96 μM, 0.99 μM, 0.33 μM, 0.11 μM, 0.04 μM, and 50 μL was added to the cell culture plate. Finally, 50 μL of Zika virus SZ-SMGC-01 strain (preserved by the Academy of Military Medical Sciences) diluted in DMEM medium containing 2% FBS was added to the cells, each well contained 100 TCID50 of the virus. The final concentration of the compound to be tested was 0.25 times the pretreatment concentration, that was, the initial concentration was 200 μM, and dilution was carried out by 3-fold series, so that the final concentrations of the compound to be tested were: 200 μM, 66.67 μM, 22.22 μM, 7.41 μM, 2.47 μM, 0.82 μM, 0.27 μM, 0.09 μM. The final concentrations of the positive compound were: 20 μM, 6.67 μM, 2.22 μM, 0.74 μM, 0.25 μM, 0.082 μM, 0.027 μM, 0.009 μM. Negative control (to the cell well, DMSO and culture medium were added, without drug) and positive control (to the cell well, DMSO, culture medium and virus were added, without drug) were set. The cell culture plates were incubated at 37° C. for 9 days. • (3) The Buffer and the substrate of CellTiter-Glo® Chemiluminescent Cell Viability Assay (purchased from Promega, Cat. No. G7573) were mixed in the dark to prepare a working solution. The working solution was mixed with PBS (purchased from Gibco, Cat. No. 10010049) at a ratio of 4:6. After the medium in the cell culture plate was discarded, 100 μl of detection reagent was added to each well, and the 96-well plate was shaken for 5 min with an orbital shaker to induce cell lysis. After stabilizing the signal in the dark for 2 minutes, a microplate reader (purchased from Molecular Devices, model SpectraMax M5) was used to measure the chemiluminescent units, the plate reading program was the preset program of CellTiter-Glo, and the cell viability was calculated:
Cell viability (%)=(A(drug treatment group)−A(positive control))/(A(negative control)−A(positive control))×100%
(§1) wherein, A represented the reading of the microplate reader.
(§2) Result evaluation: origin8.0 software was used to carry out the S-type curve fitting on the inhibition rate-concentration, and the IC50 value of the compound to be tested was calculated.

[2] = system: Rhinovirus (HRV-1059)-infected H1 Hela cells; assay: Anti-rhinovirus (HRV-1059) activity test, CellTiter-Glo cell viability; type: cell-based, rhinovirus HRV-1059 strain; conditions: 100 TCID50 virus per well, 6 days at 37° C., read-out: IC50 Anti-HRV (H1Hela)
Text: (2) Anti-Rhinovirus (HRV-1059) Activity Test
Test object: Rhinovirus (HRV-1059)-infected H1 Hela cells
Testing method: • (1) H1 Hela cells (purchased from the National Experimental Cell Resource Sharing Platform, Cat. No. 3111C0001CCC000344) were inoculated into a 96-well plate at a concentration of 1.5×10^4 cells/well, and the cell culture medium was DMEM medium (purchased from Gibco, Cat. No. 11995065) containing 10% FBS (purchased from Gibco, Cat. No. 16000044), the plate was placed in a CO2 incubator and incubated at 37° C. for 24 hours. • (2) The original medium in the 96-well plate was discarded, 100 μL of DMEM medium (purchased from Gibco, Cat. No. 11995065) containing 2% FBS (purchased from Gibco, Cat. No. 16000044) was taken and added into the cells. Then the stock solution of the compound to be tested was serially diluted with the above DMEM medium to 800 μM, 266.67 μM, 88.89 μM, 29.63 μM, 9.88 μM, 3.29 μM, 1.10 μM, 0.37 μM, 0.12 μM, 0.04 μM, and 50 μL was added to the cell culture plate. The stock solution of positive compound NITD008 (purchased from MCE Company, Cat. No. HY-12957) was serially diluted with the above DMEM medium to 80 μM, 26.67 μM, 8.89 μM, 2.96 μM, 0.99 μM, 0.33 μM, 0.11 μM, 0.04 μM, 0.012 μM, 0.004 μM, 50 μL was added to the cell culture plate. Finally, 50 μL of the rhinovirus HRV-1059 strain (purchased from ATCC, Cat. No. VR-482) diluted with DMEM medium containing 2% FBS was added to the cells, the amount of virus contained in each well was 100 TCID50. The final concentration of the compound to be tested was 0.25 times of the pretreatment concentration, that was, the initial concentration was 200 μM, the dilution was carried out by 3-fold series, the final concentrations of the compound to be tested were: 200 μM, 66.67 μM, 22.22 μM, 7.41 μM, 2.47 μM, 0.82 μM, 0.27 μM, 0.09 μM, 0.03 μM, 0.01 μM. The final concentrations of the positive compound were: 20 μM, 6.67 μM, 2.22 μM, 0.74 μM, 0.25 μM, 0.082 μM, 0.027 μM, 0.009 μM, 0.003 μM, 0.001 μM. Negative control (to the cell well, DMSO and medium were added, without drug) and positive control (to the cell well, DMSO, medium and virus were added, without drug) were set. The cell culture plates were incubated at 37° C. for 6 days. • (3) The Buffer and the substrate of CellTiter-Glo® Chemiluminescent Cell Viability Assay (purchased from Promega, Cat. No. G7573) was mixed in the dark to obtain a working solution. The working solution was mixed with PBS (purchased from Gibco, Cat. No. 10010049) at a ratio of 4:6. After the medium in the cell culture plate was discarded, 100 μl of detection reagent was added to each well, and the 96-well plate was shaken for 5 min with an orbital shaker to induce cell lysis. After stabilizing the signal in the dark for 2 minutes, a microplate reader (purchased from Molecular Devices, model SpectraMax M5) was used to measure the chemiluminescent units, the plate reading program was the preset program of CellTiter-Glo, and the cell viability was calculated:
Cell viability (%)=(A(drug treatment group)−A(positive control))/(A(negative control)−A(positive control))×[…]
as §1, §2

[3] = Enterovirus, HRV1059, H1-HeLa, 144 h

SMILES	IC50 ([1]; Zika virus, BHK, 216 h) [µM]	IC50 [2] [µM]	IC50 [1] [µM]	IC50 [2, 3] [µM]
COC(=O)[C@@]1(N=[N+]=[N-])OC([C@H](O[Si](C)(C)C(C)(C)C)[C@H]2COC(C)(C)O2)[C@H](NC(C)=O)C(O[Si](C)(C)C(C)(C)C)C1N=[N+]=[N-] (single isomer, unassigned) [Compound 4a]	1.41	4.58		
COC(=O)[C@@]1(N=[N+]=[N-])OC([C@H](O[Si](C)(C)C(C)(C)C)[C@H]2COC(C)(C)O2)[C@H](NC(C)=O)C(O[Si](C)(C)C(C)(C)C)C1N=[N+]=[N-] (single isomer, unassigned) [Compound 4b]		18.9	2.49	
COC(=O)[C@@]1(N=[N+]=[N-])OC([C@H](OC(=O)c2ccccc2)[C@@H](COC(=O)c2ccccc2)OC(=O)c2ccccc2)[C@H](NC(C)=O)C(OC(=O)c2ccccc2)C1N=[N+]=[N-] (stereo partly shown) [Compound 6a]	21.7			> 200
COC(=O)[C@]1(N=[N+]=[N-])OC([C@H](OC(=O)c2ccccc2)[C@@H](COC(=O)c2ccccc2)OC(=O)c2ccccc2)[C@H](NC(C)=O)C(OC(=O)c2ccccc2)C1N=[N+]=[N-] (stereo partly shown) [Compound 6b]	10.6			> 200
COC(=O)[C@@]1(N=[N+]=[N-])OC([C@H](OC(=O)c2ccccc2)[C@@H](COC(=O)c2ccccc2)OC(=O)c2ccccc2)[C@H](NC(C)=O)C(OC(=O)c2ccccc2)C1N=[N+]=[N-] (stereo partly shown) [Compound 6c]		> 200	11	
COC(=O)[C@]1(N=[N+]=[N-])OC([C@H](OC(=O)c2ccccc2)[C@@H](COC(=O)c2ccccc2)OC(=O)c2ccccc2)[C@H](NC(C)=O)C(OC(=O)c2ccccc2)C1N=[N+]=[N-] (stereo partly shown) [Compound 6d]		> 200	10.3	
COC(=O)[C@]1(N=[N+]=[N-])OC([C@@H](COC(C)=O)OC(C)=O)[C@H](OC(C)=O)C(OC(C)=O)C1N=[N+]=[N-] (stereo partly shown) [Compound 10a]	> 200			10.8
CC(=O)N[C@@H]1C(OC(=O)c2ccccc2)C(N=[N+]=[N-])[C@@](N=[N+]=[N-])(C(=O)O)OC1[C@H](OC(=O)c1ccccc1)[C@@H](COC(=O)c1ccccc1)OC(=O)c1ccccc1 (stereo partly shown) [Compound 13]	20			13.3
COC(=O)[C@@]1(N=[N+]=[N-])OC([C@H](OC(=O)c2ccccc2)[C@@H](COC(=O)c2ccccc2)OC(=O)c2ccccc2)[C@H](NC(C)=O)C(OC(=O)c2ccccc2)C1N (stereo partly shown) [Compound 14]	14.6			> 200
CC1(C)OC[C@H](C2O[C@](N=[N+]=[N-])(C(=O)O)C(N=[N+]=[N-])C(O)[C@H]2O)O1 (stereo partly shown) [Compound 19]	> 200			24.6
C#C[C@@]1(O)[C@H](O)[C@@H](CO)O[C@H]1n1ccc2c(N)ncnc21 [NITD008, reference compound]		0.05	1	
